Data reported in US20050113309A1, “Crystalline forms(2s)-n-5[amino(imino)methyl]-2-thienylmethyl-1-(2r)-2[(carboxymethyl) amino]-3,3-diphenylpropanoyl-2-pyrrolidinecarboxamide nh2o” (priority 2002, published 2005).
Entries after “also recorded” stand apart in the source; their conditions may differ.

What was measured:
[1] = Stress stability test (storage at −20° C., 50° C., 70° C. for 4 weeks); format: physicochemical; details: for Discoloration / change in appearance: 4 weeks' storage; for Color / Stability compared with the amorphous form: stress stability test; for Color: temperature not given (change in appearance at 70° C.)
Experimental: In order to compare physicochemical stability among the crystalline Form VI, the crystalline Form I, and the amorphous form prepared in Examples 7, 8, and Comparative Example 1, the stress stability test was conducted by placing their samples at the temperatures of −20° C., 50° C., and 70° C. for 4 weeks.

[2] = Powder X-ray diffraction during moisture absorption and dehumidification (crystal form stability to relative humidity); format: physicochemical; details: moisture absorption / relative humidity 33-93%
Experimental: 40 mg of the above crystalline Form I was thinly coated onto a sample holder. And, immediately after the sample was dried under vacuum in the presence of P2O5, and after the sample was placed for moisture absorption at each relative humidity of 33%, 53%, 64%, 75%, and 93% for two days or more, respectively, the powder X-ray diffraction test was conducted on the sample according to the conditions represented in above Test example 1 to observe change of the crystalline formi during moisture absorption. While lowering the relative humidity, the same test was repeated to observe change of the crystalline form during dehumidification.
In order to obtain each relative humidity above, as shown in the table below, saturated aqueous solutions of salts were prepared, then placed in a desiccator, and the desiccator was sealed.
40 mg of the above crystalline Form IV was thinly coated onto a sample holder. Immediately after the sample was dried under vacuum in the presence of P2O5, and after the sample was placed for moisture absorption at each relative humidity of 33%, 53%, 64%, 75%, and 93% for two days or more, respectively, the powder X-ray diffraction test of the sample was conducted according to the conditions represented in Test example 1 above to observe change of the crystalline form during moisture absorption. While lowering the relative humidity, the same test was repeated to observe change of the crystalline form during dehumidification.
In order to obtain each relative humidity above, as shown in Table 3 of Test example 2, saturated aqueous solutions of salts were prepared and then placed in a desiccator, and the desiccator was sealed.

Structure (SMILES) | Residual rate after 4 weeks ([1]; 50° C., 4 weeks) [%] | Residual rate after 4 weeks ([1]; 50° C., 4 weeks, listed as amorphous form) [%] | Residual rate after 4 weeks ([1]; 70° C., 4 weeks) [%] | Discoloration / change in appearance ([1]; 70° C.) | Residual rate after 4 weeks ([1]; 70° C., 4 weeks, listed as amorphous form) [%] | Color ([1]; 4 weeks) | Change in appearance ([1]; −20° C. and 50° C., 4 weeks) | Residual rate after 4 weeks ([1]; −20° C., 4 weeks) [%] | Residual rate after 4 weeks ([1]; −20° C., 4 weeks, listed as amorphous form) [%] | Stability compared with the amorphous form ([1]; 4 weeks) | Change of crystal structure / crystalline form with relative humidity [2]
N=C(N)c1ccc(CNC(=O)[C@@H]2CCCN2C(=O)[C@H](NCC(=O)O)C(c2ccccc2)c2ccccc2)s1 [Amorphous form, (2S)-N-5-[amino(imino)methyl]-2-thienylmethyl-1-(2R)-2-[(carboxymethyl)amino]-3,3-diphenylpropanoyl-2-pyrrolidinecarboxamide] | 96 | 96 | 87 | discoloration; also recorded: change in appearance | 87 | Yellow | did not show any change in appearance | 96 | 96 |  | 
N=C(N)c1ccc(CNC(=O)[C@@H]2CCCN2C(=O)[C@H](NCC(=O)O)C(c2ccccc2)c2ccccc2)s1 [Form I, (2S)-N-5-[amino(imino)methyl]-2-thienylmethyl-1-(2R)-2-[(carboxymethyl)amino]-3,3-diphenylpropanoyl-2-pyrrolidinecarboxamide] | 99 |  | 100 | stable without discoloration |  | Ivory |  | 99 |  | remarkably superior stability over the amorphous form | 
N=C(N)c1ccc(CNC(=O)[C@@H]2CCCN2C(=O)[C@H](NCC(=O)O)C(c2ccccc2)c2ccccc2)s1 [Form II, (2S)-N-5-[amino(imino)methyl]-2-thienylmethyl-1-(2R)-2-[(carboxymethyl)amino]-3,3-diphenylpropanoyl-2-pyrrolidinecarboxamide] |  |  |  |  |  |  |  |  |  |  | changed to the crystalline Form III
N=C(N)c1ccc(CNC(=O)[C@@H]2CCCN2C(=O)[C@H](NCC(=O)O)C(c2ccccc2)c2ccccc2)s1 [Form IV, (2S)-N-5-[amino(imino)methyl]-2-thienylmethyl-1-(2R)-2-[(carboxymethyl)amino]-3,3-diphenylpropanoyl-2-pyrrolidinecarboxamide] |  |  |  | stable without discoloration |  |  |  |  |  |  | 
N=C(N)c1ccc(CNC(=O)[C@@H]2CCCN2C(=O)[C@H](NCC(=O)O)C(c2ccccc2)c2ccccc2)s1 [Form V, (2S)-N-5-[amino(imino)methyl]-2-thienylmethyl-1-(2R)-2-[(carboxymethyl)amino]-3,3-diphenylpropanoyl-2-pyrrolidinecarboxamide] |  |  |  |  |  |  |  |  |  |  | changed into the crystalline Form VI
N=C(N)c1ccc(CNC(=O)[C@@H]2CCCN2C(=O)[C@H](NCC(=O)O)C(c2ccccc2)c2ccccc2)s1 [Form VI, (2S)-N-5-[amino(imino)methyl]-2-thienylmethyl-1-(2R)-2-[(carboxymethyl)amino]-3,3-diphenylpropanoyl-2-pyrrolidinecarboxamide] | 99 |  | 100 |  |  | Ivory |  | 101 |  | remarkably superior stability over the amorphous form | crystal structure is not changed under any relative humidity
